Measured values published in the NIST ThermoML archive (doi:10.1021/acs.jced.6b00121).

Assay: xn = mol fraction of the nth substance listed
Conditions: 100 kPa, Liquid; for viscosity: Falling or rolling sphere viscometry; for mass density: Vibrating tube method

CCCCCCCCCCC [undecane] + CCCCO
Conditions | mass density [kg/m3] | viscosity [mPa·s]
283.15 K, x1 = 0.1007 | 801.8 | 3.124
283.15 K, x1 = 0.2004 | 790.28 | 2.611
283.15 K, x1 = 0.299 | 781.12 | 2.24
283.15 K, x1 = 0.3981 | 773.6 | 1.939
283.15 K, x1 = 0.5006 | 767.02 | 1.722
283.15 K, x1 = 0.5964 | 761.98 | 1.582
283.15 K, x1 = 0.6982 | 757.32 | 1.471
283.15 K, x1 = 0.7979 | 753.51 | 1.416
283.15 K, x1 = 0.9 | 750.22 | 1.385
283.15 K, x1 = 1 | 747.78 | 1.371
288.15 K, x1 = 0.1007 | 798.03 | 2.731
288.15 K, x1 = 0.2004 | 786.48 | 2.294
288.15 K, x1 = 0.299 | 777.31 | 1.978
288.15 K, x1 = 0.3981 | 769.79 | 1.723
288.15 K, x1 = 0.5006 | 763.23 | 1.541
288.15 K, x1 = 0.5964 | 758.18 | 1.425
288.15 K, x1 = 0.6982 | 753.56 | 1.329
288.15 K, x1 = 0.7979 | 749.76 | 1.287
288.15 K, x1 = 0.9 | 746.49 | 1.26
288.15 K, x1 = 1 | 744.06 | 1.249
293.15 K, x1 = 0.1007 | 794.24 | 2.398
293.15 K, x1 = 0.2004 | 782.67 | 2.025
293.15 K, x1 = 0.299 | 773.49 | 1.755
293.15 K, x1 = 0.3981 | 765.96 | 1.54
293.15 K, x1 = 0.5006 | 759.41 | 1.387
293.15 K, x1 = 0.5964 | 754.38 | 1.29
293.15 K, x1 = 0.6982 | 749.77 | 1.212
293.15 K, x1 = 0.7979 | 746 | 1.176
293.15 K, x1 = 0.9 | 742.75 | 1.152
293.15 K, x1 = 1 | 740.35 | 1.145
298.15 K, x1 = 0.1007 | 790.42 | 2.115
298.15 K, x1 = 0.2004 | 778.83 | 1.795
298.15 K, x1 = 0.299 | 769.63 | 1.564
298.15 K, x1 = 0.3981 | 762.11 | 1.383
298.15 K, x1 = 0.5006 | 755.57 | 1.254
298.15 K, x1 = 0.5964 | 750.55 | 1.173
298.15 K, x1 = 0.6982 | 745.97 | 1.108
298.15 K, x1 = 0.7979 | 742.22 | 1.077
298.15 K, x1 = 0.9 | 739 | 1.058
298.15 K, x1 = 1 | 736.64 | 1.062
303.15 K, x1 = 0.1007 | 786.57 | 1.871
303.15 K, x1 = 0.2004 | 774.95 | 1.595
303.15 K, x1 = 0.299 | 765.75 | 1.392
303.15 K, x1 = 0.3981 | 758.22 | 1.248
303.15 K, x1 = 0.5006 | 751.7 | 1.139
303.15 K, x1 = 0.5964 | 746.69 | 1.071
303.15 K, x1 = 0.6982 | 742.14 | 1.016
303.15 K, x1 = 0.7979 | 738.42 | 0.991
303.15 K, x1 = 0.9 | 735.23 | 0.975
303.15 K, x1 = 1 | 732.93 | 0.982
308.15 K, x1 = 0.1007 | 782.69 | 1.663
308.15 K, x1 = 0.2004 | 771.05 | 1.426
308.15 K, x1 = 0.299 | 761.84 | 1.253
308.15 K, x1 = 0.3981 | 754.31 | 1.13
308.15 K, x1 = 0.5006 | 747.8 | 1.038
308.15 K, x1 = 0.5964 | 742.82 | 0.979
308.15 K, x1 = 0.6982 | 738.3 | 0.936
308.15 K, x1 = 0.7979 | 734.6 | 0.915
308.15 K, x1 = 0.9 | 731.45 | 0.902
308.15 K, x1 = 1 | 729.23 | 0.91
313.15 K, x1 = 0.1007 | 778.77 | 1.483
313.15 K, x1 = 0.2004 | 767.1 | 1.279
313.15 K, x1 = 0.299 | 757.88 | 1.131
313.15 K, x1 = 0.3981 | 750.36 | 1.028
313.15 K, x1 = 0.5006 | 743.87 | 0.95
313.15 K, x1 = 0.5964 | 738.91 | 0.901
313.15 K, x1 = 0.6982 | 734.42 | 0.864
313.15 K, x1 = 0.7979 | 730.76 | 0.847
313.15 K, x1 = 0.9 | 727.65 | 0.837
313.15 K, x1 = 1 | 725.53 | 0.847
318.15 K, x1 = 0.1007 | 774.8 | 1.326
318.15 K, x1 = 0.2004 | 763.11 | 1.152
318.15 K, x1 = 0.299 | 753.88 | 1.026
318.15 K, x1 = 0.3981 | 746.37 | 0.938
318.15 K, x1 = 0.5006 | 739.91 | 0.882
318.15 K, x1 = 0.5964 | 734.97 | 0.832
318.15 K, x1 = 0.6982 | 730.51 | 0.801
318.15 K, x1 = 0.7979 | 726.89 | 0.787
318.15 K, x1 = 0.9 | 723.83 | 0.779
318.15 K, x1 = 1 | 721.82 | 0.79
323.15 K, x1 = 0.1007 | 770.78 | 1.192
323.15 K, x1 = 0.2004 | 759.07 | 1.042
323.15 K, x1 = 0.299 | 749.84 | 0.934
323.15 K, x1 = 0.3981 | 742.34 | 0.858
323.15 K, x1 = 0.5006 | 735.91 | 0.804
323.15 K, x1 = 0.5964 | 731 | 0.771
323.15 K, x1 = 0.6982 | 726.58 | 0.749
323.15 K, x1 = 0.7979 | 722.99 | 0.733
323.15 K, x1 = 0.9 | 719.99 | 0.727
323.15 K, x1 = 1 | 718.11 | 0.74
328.15 K, x1 = 0.1007 | 766.71 | 1.074
328.15 K, x1 = 0.2004 | 754.97 | 0.945
328.15 K, x1 = 0.299 | 745.75 | 0.853
328.15 K, x1 = 0.3981 | 738.26 | 0.79
328.15 K, x1 = 0.5006 | 731.86 | 0.744
328.15 K, x1 = 0.5964 | 726.99 | 0.716
328.15 K, x1 = 0.6982 | 722.61 | 0.693
328.15 K, x1 = 0.7979 | 719.07 | 0.685
328.15 K, x1 = 0.9 | 716.13 | 0.68
328.15 K, x1 = 1 | 714.39 | 0.692
333.15 K, x1 = 0.1007 | 762.58 | 0.974
333.15 K, x1 = 0.2004 | 750.83 | 0.86
333.15 K, x1 = 0.299 | 741.61 | 0.782
333.15 K, x1 = 0.3981 | 734.14 | 0.729
333.15 K, x1 = 0.5006 | 727.78 | 0.69
333.15 K, x1 = 0.5964 | 722.94 | 0.667
333.15 K, x1 = 0.6982 | 718.61 | 0.647
333.15 K, x1 = 0.7979 | 715.12 | 0.641
333.15 K, x1 = 0.9 | 712.24 | 0.638
333.15 K, x1 = 1 | 710.68 | 0.651
338.15 K, x1 = 0.1007 | 758.39 | 0.882
338.15 K, x1 = 0.2004 | 746.61 | 0.785
338.15 K, x1 = 0.299 | 737.42 | 0.719
338.15 K, x1 = 0.3981 | 729.97 | 0.675
338.15 K, x1 = 0.5006 | 723.65 | 0.641
338.15 K, x1 = 0.5964 | 718.86 | 0.622
338.15 K, x1 = 0.6982 | 714.57 | 0.606
338.15 K, x1 = 0.7979 | 711.13 | 0.602
338.15 K, x1 = 0.9 | 708.34 | 0.601
338.15 K, x1 = 1 | 706.95 | 0.615
343.15 K, x1 = 0.1007 | 754.12 | 0.802
343.15 K, x1 = 0.2004 | 742.34 | 0.72
343.15 K, x1 = 0.299 | 733.15 | 0.663
343.15 K, x1 = 0.3981 | 725.75 | 0.626
343.15 K, x1 = 0.5006 | 719.48 | 0.598
343.15 K, x1 = 0.5964 | 714.72 | 0.582
343.15 K, x1 = 0.6982 | 710.49 | 0.569
343.15 K, x1 = 0.7979 | 707.12 | 0.566
343.15 K, x1 = 0.9 | 704.41 | 0.567
343.15 K, x1 = 1 | 703.22 | 0.58
348.15 K, x1 = 0.1007 | 749.78 | 0.732
348.15 K, x1 = 0.2004 | 738.01 | 0.662
348.15 K, x1 = 0.299 | 728.84 | 0.614
348.15 K, x1 = 0.3981 | 721.47 | 0.583
348.15 K, x1 = 0.5006 | 715.24 | 0.56
348.15 K, x1 = 0.5964 | 710.54 | 0.546
348.15 K, x1 = 0.6982 | 706.38 | 0.535
348.15 K, x1 = 0.7979 | 703.07 | 0.534
348.15 K, x1 = 0.9 | 700.47 | 0.536
348.15 K, x1 = 1 | 699.47 | 0.549
353.15 K, x1 = 0.1007 | 745.37 | 0.671
353.15 K, x1 = 0.2004 | 733.6 | 0.611
353.15 K, x1 = 0.299 | 724.46 | 0.57
353.15 K, x1 = 0.3981 | 717.14 | 0.544
353.15 K, x1 = 0.5006 | 710.97 | 0.525
353.15 K, x1 = 0.5964 | 706.32 | 0.514
353.15 K, x1 = 0.6982 | 702.22 | 0.506
353.15 K, x1 = 0.7979 | 698.99 | 0.505
353.15 K, x1 = 0.9 | 696.51 | 0.508
353.15 K, x1 = 1 | 695.72 | 0.522
358.15 K, x1 = 0.1007 | 740.87 | 0.617
358.15 K, x1 = 0.2004 | 729.1 | 0.565
358.15 K, x1 = 0.299 | 720.01 | 0.531
358.15 K, x1 = 0.3981 | 712.73 | 0.51
358.15 K, x1 = 0.5006 | 706.63 | 0.493
358.15 K, x1 = 0.5964 | 702.04 | 0.485
358.15 K, x1 = 0.6982 | 698.02 | 0.477
358.15 K, x1 = 0.7979 | 694.88 | 0.479
358.15 K, x1 = 0.9 | 692.52 | 0.483
358.15 K, x1 = 1 | 691.96 | 0.497
363.15 K, x1 = 0.1007 | 736.28 | 0.569
363.15 K, x1 = 0.2004 | 724.55 | 0.525
363.15 K, x1 = 0.299 | 715.49 | 0.497
363.15 K, x1 = 0.3981 | 708.28 | 0.479
363.15 K, x1 = 0.5006 | 702.24 | 0.465
363.15 K, x1 = 0.5964 | 697.72 | 0.458
363.15 K, x1 = 0.6982 | 693.78 | 0.452
363.15 K, x1 = 0.7979 | 690.73 | 0.455
363.15 K, x1 = 0.9 | 688.52 | 0.46
363.15 K, x1 = 1 | 688.18 | 0.475
